Results reported in patent US9296734B2 (AMGEN INC., priority 2013, dated 2016).
Like-named read-outs stand apart in the source and are kept apart here.

Assays:
Cathepsin D (Cat D) = Cathepsin D (Cat D) (Homo sapiens (Human), UniProt P07339); assay: In vitro enzymatic Cathepsin D (Cat D) FRET assay; assay type: biochemical; settings: read-out: CatD IC50
In short: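 CHO-expressed recombinant Cat D cleaves a fluorophore/quencher FRET peptide (20 nM) in 0.05 M citrate pH 3.5, 5 mM CHAPS, 10% DMSO final, over 1 h. Tris addition neutralizes pH to stop the reaction; fluorescence read at excitation 500 nm, emission 580 nm.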

[1] = tested on: Abeta 40 in CSF and brain; assay: In vivo inhibition of beta-secretase: Abeta 40 reduction in CSF and brain of the rat; settings: 10 mpk (unless otherwise noted), after 4 hrs
Text: In Vivo Inhibition of Beta-Secretase
Several animal models, including mouse, rat, dog, and monkey, may be used to screen for inhibition of beta-secretase activity in vivo following administration of a test compound sample. Animals used in this invention can be wild type, transgenic, or gene knockout animals. […] A separate group of animals receive 2% hydroxypropyl methylcellulose, 1% Tween80 alone, containing no test compound, and serve as a vehicle-control group. At the end of the test period, animals are sacrificed and brain tissues, plasma or cerebrospinal fluid are collected. […] Homogenates are centrifuged at 355,000 g, 4° C. for 30 minutes. CSF or brain supernatants are then analyzed for the presence of A-beta peptide by specific sandwich ELISA assays based on ECL (Electrochemiluminescence) technology. For example, rat Abeta40 is measured using biotinylated-4G8 (Signet) as a capture antibody and Fab40 (an in-house antibody specific to the C-terminal of Abeta40) as a detection antibody.
Actual vehicles used: Oral: 2% HPMC, 1% Tween80, pH 2.2

[2] = target: Beta Secretase enzyme (BACE) (Homo sapiens (Human), UniProt P56817); assay: In vitro enzymatic BACE FRET assay; assay type: biochemical; settings: read-out: BACE 1 FRET assay IC50
Beta Secretase enzyme (BACE), sequence (P56817 46-501): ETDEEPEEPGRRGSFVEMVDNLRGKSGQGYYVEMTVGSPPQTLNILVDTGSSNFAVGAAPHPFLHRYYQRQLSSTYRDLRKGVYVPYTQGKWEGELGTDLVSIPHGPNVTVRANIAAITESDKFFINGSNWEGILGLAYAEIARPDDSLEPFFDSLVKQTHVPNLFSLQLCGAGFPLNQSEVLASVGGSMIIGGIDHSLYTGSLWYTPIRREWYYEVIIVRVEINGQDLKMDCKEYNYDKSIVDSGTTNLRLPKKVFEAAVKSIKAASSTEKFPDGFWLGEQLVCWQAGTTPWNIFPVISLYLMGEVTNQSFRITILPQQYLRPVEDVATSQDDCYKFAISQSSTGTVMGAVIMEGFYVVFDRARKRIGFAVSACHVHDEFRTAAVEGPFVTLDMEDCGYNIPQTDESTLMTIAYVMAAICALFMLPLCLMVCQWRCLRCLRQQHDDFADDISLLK
In short: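 Reactions ran in 0.05 M acetate pH 4.2 with 10% DMSO final and 100 uM genapol. They were started with 50 nM peptide FRET substrate (fluorophore and quencher flanking the BACE cleavage site) and incubated one hour. Tris addition raised the pH to neutral to stop the reaction before fluorescence reading.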

[3] = tested on: Aβ40 in conditioned medium of cells stably expressing Amyloid Precursor Protein (APP); assay: In vitro BACE cell-based assay (Aβ40 sandwich ELISA); settings: Homo sapiens
In short: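 Secreted Aβ40 was quantified by sandwich ELISA (pAb40 capture, biotinylated 6E10 detection, Europium time-resolved fluorescence). IC50 derived from percent inhibition versus concentration.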

[4] = Abeta 40, rat CSF, read-out: % reduction of rat CSF levels at 10 pmk
[5] = Abeta 40, rat brain, read-out: % reduction of rat brain levels at 10 mpk
[6] = HEK293, average IC50, HEK cells, read-out: HEK cell assay IC50
[7] = average IC50, cathepsin D enzyme assay
[8] = average IC50, BACE enzyme assay
[9] = HEK293, average IC50, HEK cell assay, read-out: HEK cell assay IC50

Cathepsin D (Cat D), sequence (P07339 65-412, species assumed): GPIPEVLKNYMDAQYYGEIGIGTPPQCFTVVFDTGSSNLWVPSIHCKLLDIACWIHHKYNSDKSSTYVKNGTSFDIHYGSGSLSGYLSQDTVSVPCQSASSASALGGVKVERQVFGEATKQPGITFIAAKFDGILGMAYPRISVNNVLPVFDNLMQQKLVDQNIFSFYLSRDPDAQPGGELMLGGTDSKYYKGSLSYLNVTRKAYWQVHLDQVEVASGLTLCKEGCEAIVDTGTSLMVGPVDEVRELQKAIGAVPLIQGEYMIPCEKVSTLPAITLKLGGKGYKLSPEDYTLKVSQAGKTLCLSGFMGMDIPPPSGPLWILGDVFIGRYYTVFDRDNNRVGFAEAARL

IC50 (Cathepsin D (Cat D); average IC50) [µM]	IC50 (Cathepsin D (Cat D); [7]) [µM]	Structure (SMILES)	inhibition in vivo at 10 mg/kg [1, 4] [%]	inhibition in vivo at 10 mg/kg [1, 5] [%]	other results
> 400		COc1cnc(C(=O)Nc2ccc(F)c([C@]3(CF)C[C@@H](C(F)(F)F)OC(N)=N3)c2)cn1 [Example 2, N-(3-((4S,6S)-2-amino-4-(fluoromethyl)-6-(trifluoromethyl)-5,6-dihydro-4H-1,3-oxazin-4-yl)-4-fluorophenyl)-5-methoxypyrazine-2-carboxamide]	70	61	
> 400		NC1=N[C@](CF)(c2cc(NC(=O)c3ccc(Cl)cn3)ccc2F)C[C@@H](C(F)(F)F)O1 [Example 3, N-(3-((4S,6S)-2-amino-4-(fluoromethyl)-6-(trifluoromethyl)-5,6-dihydro-4H-1,3-oxazin-4-yl)-4-fluorophenyl)-5-chloropicolinamide]	72	58	IC50 ([2]; average IC50): 0.018 µM; IC50 [3, 6]: 0.032 µM
	1630	NC1=N[C@](CF)(c2cc(Nc3cc(Cl)ccn3)ccc2F)C[C@@H](C(F)(F)F)O1 [Example 16, (4S,6S)-4-(5-((4-chloropyridin-2-yl)amino)-2-fluorophenyl)-4-(fluoromethyl)-6-(trifluoromethyl)-5,6-dihydro-4H-1,3-oxazin-2-amine]	83	87	
> 400		N#Cc1cnc(C(=O)Nc2ccc(F)c([C@]3(CF)C[C@@H](C(F)(F)F)OC(N)=N3)c2)c(Cl)c1 [Example 32, N-(3-((4S,6S)-2-amino-4-(fluoromethyl)-6-(trifluoromethyl)-5,6-dihydro-4H-1,3-oxazin-4-yl)-4-fluorophenyl)-3-chloro-5-cyano-2-pyridinecarboxamide]	21	-3	IC50 ([2]; average IC50): 0.0285 µM; IC50 [3, 6]: 0.0544 µM
> 400		COc1cnc(C(=O)Nc2ccc(F)c([C@]3(CF)C[C@@H](C(F)(F)F)OC(N)=N3)c2)c(Cl)c1 [Example 50, N-(3-((4S,6S)-2-amino-4-(fluoromethyl)-6-(trifluoromethyl)-5,6-dihydro-4H-1,3-oxazin-4-yl)-4-fluorophenyl)-3-chloro-5-methoxypicolinamide]	50	22	IC50 ([2]; average IC50): 0.0238 µM; IC50 [3, 6]: 0.0265 µM
		Cc1cc(C#N)cnc1C(=O)Nc1ccc(F)c([C@]2(CF)C[C@@H](C(F)(F)F)OC(N)=N2)c1 [Example 51, N-(3-((4S,6S)-2-amino-4-(fluoromethyl)-6-(trifluoromethyl)-5,6-dihydro-4H-1,3-oxazin-4-yl)-4-fluorophenyl)-5-cyano-3-methylpicolinamide]	68	59	
> 400		NC1=N[C@](CF)(c2cc(NC(=O)c3ccc(Br)cn3)ccc2F)C[C@@H](C(F)(F)F)O1 [Example 52, N-(3-((4S,6S)-2-amino-4-(fluoromethyl)-6-(trifluoromethyl)-5,6-dihydro-4H-1,3-oxazin-4-yl)-4-fluorophenyl)-5-bromopicolinamide]	61	54	
> 400		C[C@@]1(c2cc(NC(=O)c3ccc(Cl)cn3)cnc2F)C[C@@H](C(F)(F)F)OC(N)=N1 [Example 60, N-(5-((4S,6S)-2-amino-4-methyl-6-(trifluoromethyl)-5,6-dihydro-4H-1,3-oxazin-4-yl)-6-fluoropyridin-3-yl)-5-chloropicolinamide]	79	72	IC50 ([2]; average IC50): 0.0528 µM; IC50 [3, 6]: 0.0135 µM
> 400		C[C@@]1(c2nc(NC(=O)c3ccc(C#N)cn3)ccc2F)C[C@@H](C(F)(F)F)OC(N)=N1 [Example 79, N-(6-((4S,6S)-2-amino-4-methyl-6-(trifluoromethyl)-5,6-dihydro-4H-1,3-oxazin-4-yl)-5-fluoropyridin-2-yl)-5-cyanopicolinamide]	83	79	IC50 ([2]; average IC50): 0.0304 µM; IC50 [3, 6]: 0.0115 µM
	1170	NC1=N[C@](CF)(c2nc(NC(=O)c3nn(C(F)F)cc3Cl)ccc2F)C[C@@H](C(F)(F)F)O1 [Example 135, N-(6-((4S,6S)-2-amino-4-(fluoromethyl)-6-(trifluoromethyl)-5,6-dihydro-4H-1,3-oxazin-4-yl)-5-fluoropyridin-2-yl)-4-chloro-1-(difluoromethyl)-1H-pyrazole-3-carboxamide]	64	55	IC50 [2, 8]: 0.052 µM; IC50 [3, 9]: 0.031 µM
	> 400	C#CCOc1cnc(C(=O)Nc2cc(F)c(F)c([C@]3(CF)C[C@@H](C(F)(F)F)OC(N)=N3)c2)cn1 [Example 154, N-(3-((4S,6S)-2-amino-4-(fluoromethyl)-6-(trifluoromethyl)-5,6-dihydro-4H-1,3-oxazin-4-yl)-4,5-difluorophenyl)-5-(prop-2-yn-1-yloxy)pyrazine-2-carboxamide]	67	71	IC50 [2, 8]: 0.0014 µM; IC50 [3, 9]: 0.0096 µM
	> 400	CC#CCOc1cnc(C(=O)Nc2cc(F)c(F)c([C@]3(CF)C[C@@H](C(F)(F)F)OC(N)=N3)c2)cn1 [Example 155, N-(3-((4S,6S)-2-amino-4-(fluoromethyl)-6-(trifluoromethyl)-5,6-dihydro-4H-1,3-oxazin-4-yl)-4,5-difluorophenyl)-5-(but-2-yn-1-yloxy)pyrazine-2-carboxamide]	26	11	IC50 [2, 8]: 0.00087 µM; IC50 [3, 9]: 0.00367 µM
	1350	C[C@@]1(c2cc(NC(=O)c3ccc(Cl)cn3)cc(F)c2F)C[C@@H](C(F)(F)F)OC(N)=N1 [Example 164, N-(3-((4S,6S)-2-amino-4-methyl-6-(trifluoromethyl)-5,6-dihydro-4H-1,3-oxazin-4-yl)-4,5-difluorophenyl)-5-chloropicolinamide]	77	75	IC50 [2, 8]: 0.024 µM; IC50 [3, 9]: 0.0052 µM
	5350	COc1cnc(C(=O)Nc2cc(F)c(F)c([C@]3(C)C[C@@H](C(F)(F)F)OC(N)=N3)c2)cn1 [Example 165, N-(3-((4S,6S)-2-amino-4-methyl-6-(trifluoromethyl)-5,6-dihydro-4H-1,3-oxazin-4-yl)-4,5-difluorophenyl)-5-methoxypyrazine-2-carboxamide]	75	76	IC50 [2, 8]: 0.078 µM; IC50 [3, 9]: 0.0098 µM
	113	C[C@@]1(c2cc(NC(=O)c3ncc(C#N)cc3Cl)cc(F)c2F)C[C@@H](C(F)(F)F)OC(N)=N1 [Example 167, N-(3-((4S,6S)-2-amino-4-methyl-6-(trifluoromethyl)-5,6-dihydro-4H-1,3-oxazin-4-yl)-4,5-difluorophenyl)-3-chloro-5-cyanopicolinamide]	42	15	
		COc1ccc(C(=O)Nc2cc(F)c(F)c([C@]3(C)C[C@@H](C(F)(F)F)OC(N)=N3)c2)nc1 [Example 201, N-(3-((4S,6S)-2-amino-4-methyl-6-(trifluoromethyl)-5,6-dihydro-4H-1,3-oxazin-4-yl)-4,5-difluorophenyl)-5-methoxypicolinamide]	75	76	IC50 (Cathepsin D (Cat D); average): 762 µM
		COc1cnc(C(=O)Nc2cc(F)c(F)c([C@]3(C)C[C@@H](C(F)(F)F)OC(N)=N3)c2)c(F)c1 [Example 239, N-(3-((4S,6S)-2-amino-4-methyl-6-(trifluoromethyl)-5,6-dihydro-4H-1,3-oxazin-4-yl)-4,5-difluorophenyl)-3-fluoro-5-methoxypicolinamide]			IC50 ([2]; average): 0.033 µM; IC50 (Cathepsin D (Cat D); average): 1180 µM; IC50 ([3]; HEK293, HEK cells, average, read-out: HEK cell assay IC50): 0.012 µM
		C[C@@]1(c2cc(NC(=O)c3ncc(Br)cc3Cl)cc(F)c2F)C[C@@H](C(F)(F)F)OC(N)=N1 [Example 240, N-(3-((4S,6S)-2-amino-4-methyl-6-(trifluoromethyl)-5,6-dihydro-4H-1,3-oxazin-4-yl)-4,5-difluorophenyl)-5-bromo-3-chloropicolinamide]			IC50 ([2]; average): 0.02 µM; IC50 (Cathepsin D (Cat D); average): 928 µM; IC50 ([3]; HEK293, read-out: HEK cell assay IC50): 0.022 µM
